# Measured values as given in US6630472B1, “Compounds, pharmaceutical compositions, and methods for stimulating neuronal growth and elongation” (priority 1998, dated 2003).
# pKi: −log10 of the molar value.
# Molecular target: FKBP12 (Homo sapiens, UniProt P62942)
# Assay: rotamase inhibition assay (N-succinyl-Ala-Ala-Pro-Phe-p-nitroanilide, chymotrypsin-coupled)
# Assay type: biochemical
# Details: Rotamase Ki(app)
# Method: In the rotamase inhibition assay, isomerization of an artificial substrate N-succinyl-Ala-Ala-Pro-Phe-p-nitroanilide is followed spectrophotometrically. The assay includes the cis form of the substrate, FKBP12, the compound being tested, and chymotrypsin. Chymotrypsin is able to cleave p-nitroaniline from the trans form of the substrate, but not from the cis form. Release of p-nitroaniline is measured spectrophotometrically. Using this assay, various amounts of the FKBP rotamase-inhibiting compounds of formula (I-a) or (I-b) were added to cis-N-succinyl-alanine-alanine-proline-phenylalanine-para-nitroaniline (Bachem, 3132 Kashiwa Street, Torrance, Calif. 90505) in the presence of FKBP12 and chymotrypsin. Spectrophotometric measurements of p-nitroaniline concentrations allowed estimation of the apparent Ki values, which are provided in Table 1 below.
# FKBP12, sequence (P62942 whole entry, species assumed): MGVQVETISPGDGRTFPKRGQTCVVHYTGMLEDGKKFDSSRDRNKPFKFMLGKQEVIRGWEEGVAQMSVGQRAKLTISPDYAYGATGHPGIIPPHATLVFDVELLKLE
row,SMILES,pKi
1,COc1cc(OC)cc(N2C=C3C4CCCC(C(=O)N3CC2=O)N4C(=O)C(=O)c2cc(OC)c(OC)c(OC)c2)c1 (stereo not shown) [Compound 142],7.27

# Same assay, conditions: apparent Ki; NI = no inhibition at the concentrations tested; read-out: Rotamase Ki(app)
row,SMILES,pKi
1,COc1cc(C(=O)C(=O)N2C3CCCC2C2=CN(CC4CC4)C(=O)CN2C3=O)cc(OC)c1OC (stereo not shown) [Compound 122],6.82
2,CCC(C)(C)C(=O)C(=O)N1C2CCCC1C1=CN(CC3CC3)C(=O)CN1C2=O (stereo not shown) [Compound 123],5.92
3,CC(=O)OCC1(C(=O)C(=O)N2C3CCCC2C2=CN(CC4CC4)C(=O)CN2C3=O)CCCC1 (stereo not shown) [Compound 124],6.42
4,COCOC1(C(=O)C(=O)N2C3CCCC2C2=CN(C4CCCC4)C(=O)CN2C3=O)CCCC1 (stereo not shown) [Compound 135],5.85
5,COCOC1(C(=O)C(=O)N2C3CCC[C@@H]2[C@@H]2Cc4c(cc(OC)cc4OC)CN2C3=O)CCCC1 [Compound 136],5.62
6,COC1(C(=O)C(=O)N2[C@@H]3CCC[C@H]2C(=O)N2Cc4c(cc(C(F)(F)F)cc4C(F)(F)F)C[C@@H]32)CCCC1 [Compound 137],5.01
7,COC[C@@H]1CC[C@@H](C)[C@](O)(C(=O)C(=O)N2C3CCCC2C(=O)N(Cc2ccc4ccccc4c2)C3)C1 (stereo partly shown) [Compound 138],5.89
8,COc1cc(C(=O)C(=O)N2C3CCCC2C(=O)N(Cc2ccc4ccccc4c2)C3)cc(OC)c1OC (stereo not shown) [Compound 139],6.45
9,COC[C@@H]1CC[C@@H](C)[C@](O)(C(=O)C(=O)N2C3CCCC2C2=CN(C4CCCC4)C(=O)CN2C3=O)C1 (stereo partly shown) [Compound 140],5.00
10,COCOC1(C(=O)C(=O)N2C3CCC[C@@H]2[C@@H]2Cc4cc(OC(F)(F)F)ccc4CN2C3=O)CCCC1 [Compound 141],5.40
11,COc1cc(OC)cc(N2C=C3C4CCCC(C(=O)N3CC2=O)N4C(=O)C(=O)C2(COC(C)=O)CCCC2)c1 (stereo not shown) [Compound 143],6.72
12,CCC(=O)OC1(C(=O)C(=O)N2C3CCCC2C2=CN(C4CCCC4)C(=O)CN2C3=O)CCCC1 (stereo not shown) [Compound 144],5.92
13,COCC(=O)OC1(C(=O)C(=O)N2C3CCCC2C2=CN(C4CCCC4)C(=O)CN2C3=O)CCCC1 (stereo not shown) [Compound 145],5.77
14,COC1(C(=O)C(=O)N2C3CCCC2C2=Cc4cc(C(F)(F)F)cc(C(F)(F)F)c4CN2C3=O)CCCC1 (stereo not shown) [Compound 146],< 4.30
15,CC(C)C(=O)OC1(C(=O)C(=O)N2C3CCCC2C2=CN(C4CCCC4)C(=O)CN2C3=O)CCCC1 (stereo not shown) [Compound 150],5.82
16,COc1cc(OC)cc(N2C=C3C4CCCC(C(=O)N3CC2=O)N4C(=O)C(=O)C2(OC)CCCC2)c1 (stereo not shown) [Compound 151],6.28
17,COCOCC1(C(=O)C(=O)N2C3CCCC2C2=CN(C4CCCC4)C(=O)CN2C3=O)CCCC1 (stereo not shown) [Compound 152],5.55
18,COc1ccc(OC[C@@H]2CC[C@H](N3CC4CCCC(C3=O)N4C(=O)C(=O)c3cc(OC)c(OC)c(OC)c3)C2)cc1 (stereo partly shown) [Compound 153],6.28
19,C=CCC(CC=C)C(=O)OC[C@@H]1CC[C@H](N2CC3CCCC(C2=O)N3C(=O)C(=O)c2cc(OC)c(OC)c(OC)c2)C1 (stereo partly shown) [Compound 154],6.61
20,COc1cc(OC)cc(N2C=C3C4CCCC(C(=O)N3CC2=O)N4C(=O)C(=O)C(C)(C)c2ccccc2)c1 (stereo not shown) [Compound 155],5.92
21,COc1cc(OC)cc(N2C=C3C4CCCC(C(=O)N3CC2=O)N4C(=O)C(=O)C2(c3ccccc3)CCCC2)c1 (stereo not shown) [Compound 156],5.82
22,"COc1cc(C(=O)C(=O)N2C3CCCC2C(=O)N(CCc2ccccc2)CC3)cc(OC)c1OC (stereo not shown) [Compound 159, 1-(2-Oxo-3-phenethyl-3,10-diaza-bicyclo[4.3.1]dec-10-yl)-2-(3,4,5-trimethoxy-phenyl)-ethane-1,2-dione]",6.12
23,"COc1cc(C(=O)C(=O)N2C3C=CN(CCCCc4ccccc4)C(=O)C2CCC3)cc(OC)c1OC (stereo not shown) [Compound 162, 1-[2-Oxo-3-(4-phenyl-butyl)-3,10-diaza-bicyclo[4.3.1]dec-4-en-10-yl]-2-(3,4,5-trimethoxy-phenyl)-ethane-1,2-dione]",6.46

# Test system: not given
# Assay: not given
# Details: not given
row,SMILES,melting point
1,COc1cc(C(=O)C(=O)N2C3CCCC2C(=O)N(CCCCc2ccccc2)C3=O)cc(OC)c1OC,101 to 103 °C
